Reference: EP4778519A1, “THERAPEUTIC OR PROPHYLACTIC AGENT FOR FRONTOTEMPORAL LOBAR DEGENERATION ACCOMPANIED BY ACCUMULATION OF TDP-43 (FTLD-TDP)” (Socium Inc., priority 2023, dated 2025)
Entries after “also recorded” stand apart in the source; their conditions may differ. Like-named read-outs stand apart in the source and are kept apart here.

Key:
[1] = tested on: Neuro2a cells transfected with the TDP-43 gene; test: Inhibition of cell death in neuron-differentiated Neuro2a cells transfected with the TDP-43 gene (Example 1); assay type: cell-based, Mouse; settings: evaluated 7 days after transfection, Figures 3 and 4
Description: Mouse neuroblastoma (Neuro2a) cells were seeded on a dish. The Neuro2a cells were cultured in a culture medium containing DMEM+10% FBS at 37°C in the presence of 5% CO2. On the first day after seeding, differentiation into neurons was initiated. Differentiation into neurons was performed in a culture medium containing DMEM+2% FBS+20 µmol/L retinoic acid. On the fourth day after seeding, cells were transfected with synthesized TDP-43 mRNA by a lipofection method. Cells were sampled at 6 hours, 9 hours, 12 hours, 15 hours, 18 hours, and 21 hours after transfection. […] For sampling, cells were lysed in an RIPA buffer and centrifuged at 22,000xg for 30 minutes at 4°C, the supernatant was used as the soluble fraction, the precipitate was used as the insoluble fraction, and equal volumes of a 2×SDS sample buffer were added to the respective fractions and heated at 95°C for 5 minutes to prepare electrophoresis samples. The electrophoresis samples were subjected to electrophoresis using a polyacrylamide gel, TDP-43 was then transferred to a PVDF membrane. TDP-43 was detected through chemiluminescence using anti-TDP-43 antibodies as primary antibodies and HRP-conjugated anti-rabbit antibodies as secondary antibodies. […] The insoluble fractions of TDP-43 indicate the aggregation of TDP-43. […]
The proportion of dead cells was evaluated 7 days after the cells were transfected with the TDP-43 gene.

TDP-43 [2] = test: Soluble and insoluble fractions of TDP-43 in TDP-43-transfected Neuro2a cells, Western blot (Example 2); assay type: cell-based, Mouse; settings: 10 µmol/L added 6 hours after transfection, cultured for 12 hours; for soluble fractions versus insoluble fractions of TDP-43: Figure 5; for proportion of insoluble fractions based on a total number of soluble fractions and insoluble fractions of TDP-43: Figure 6
Description: Mouse neuroblastoma (Neuro2a) cells were seeded on a dish. The Neuro2a cells were cultured in a culture medium containing DMEM+10% FBS at 37°C in the presence of 5% CO2. On the first day after seeding, differentiation into neurons was initiated. Differentiation into neurons was performed in a culture medium containing DMEM+2% FBS+20 µmol/L retinoic acid. On the fourth day after seeding, cells were transfected with synthesized TDP-43 mRNA by a lipofection method. Cells were sampled at 6 hours, 9 hours, 12 hours, 15 hours, 18 hours, and 21 hours after transfection. […] For sampling, cells were lysed in an RIPA buffer and centrifuged at 22,000xg for 30 minutes at 4°C, the supernatant was used as the soluble fraction, the precipitate was used as the insoluble fraction, and equal volumes of a 2×SDS sample buffer were added to the respective fractions and heated at 95°C for 5 minutes to prepare electrophoresis samples. The electrophoresis samples were subjected to electrophoresis using a polyacrylamide gel, TDP-43 was then transferred to a PVDF membrane. TDP-43 was detected through chemiluminescence using anti-TDP-43 antibodies as primary antibodies and HRP-conjugated anti-rabbit antibodies as secondary antibodies. […] The insoluble fractions of TDP-43 indicate the aggregation of TDP-43.
Neuro2a cells were seeded on a dish. On the first day after seeding, differentiation into neurons was initiated. On the fourth day after seeding, cells were transfected with the TDP-43 gene.

TDP-43 [3] = test: Soluble and insoluble fractions of TDP-43 in motor neurons derived from iPS cells of healthy subjects, Western blot (Example 3); assay type: cell-based, human; settings: 10 µmol/L, cultured for 20 days, Figure 7
Description: 100 µL of an EHS-gel basement membrane matrix (commercially available from FUJIFILM Wako Pure Chemical Corporation) was added to 12.5 mL of DMEM (Dulbecco's Modified Eagle Medium, commercially available from FUJIFILM Wako Pure Chemical Corporation) and mixed, and the mixture was added to a 24-well plate at 600 µL per well. The plate was left at room temperature for 2 hours, and the solution was then removed from the wells. Next, 600 µL of DMEM was added to each well, and the plate was left at room temperature for 2 hours.
Motor neurons derived from iPS cells of healthy subjects and motor neurons derived from iPS cells of ALS patients were obtained from iXCells Biotechnologies. The motor neurons were quickly thawed in a thermostatic oven at 37°C and suspended in a motor neuron maintenance culture medium (iXCells Biotechnologies). […]
The soluble protein fractions and the insoluble protein fractions were subjected to SDS-PAGE, and the proteins were transferred to a PVDF membrane. […] Next, the PVDF membrane was washed three times with a buffer solution, 1 mL of a luminescence reagent (ImmunoStar LD, commercially available from FUJIFILM Wako Pure Chemical Corporation) was then used to induce luminescence from the labeled secondary antibodies, and the PVDF membrane was imaged.

TDP-43 [4] = test: Soluble and insoluble fractions of TDP-43 in motor neurons derived from iPS cells of ALS patients, Western blot (Example 3); assay type: cell-based, human; settings: 10 µmol/L, cultured for 20 days; for bands for insoluble fractions of TDP-43: Figure 7; for average proportion of insoluble fractions of TDP-43: three experiments, Figure 8
[5] = cited from earlier work
[6] = cited from earlier work; remark: listed apart in the source
[7] = Reported human pharmacokinetics of D-cycloserine (literature); assay type: in vivo, humans; settings: estimated; 15 mg orally administered twice daily

SMILES	effect of inhibiting cell death [1]	soluble fractions versus insoluble fractions of TDP-43 (TDP-43 [2])	proportion of insoluble fractions based on a total number of soluble fractions and insoluble fractions of TDP-43 (TDP-43 [2])	bands for insoluble fractions of TDP-43 (TDP-43 [3])	bands for insoluble fractions of TDP-43 (TDP-43 [4])	average proportion of insoluble fractions of TDP-43 (TDP-43 [4])	side effects ([5]; 150 mg administered to humans)	side effects ([5]; 250 mg administered to humans to treat tuberculosis)	Cmax ([6]; 15 mg orally administered to humans, read-out: maximum blood concentration (Cmax)) [µM]	half-life ([6]; in vivo)	trough value [7] [nmol/L]
N[C@H]1CONC1=O [L-cycloserine, (4S)-4-amino-1,2-oxazolidin-3-one]	exhibited an effect of inhibiting cell death in a concentration-dependent manner	the number of soluble fractions of TDP-43 was larger than the number of insoluble fractions of TDP-43	less than half								
N[C@@H]1CONC1=O [D-cycloserine, (4R)-4-Amino-1,2-oxazolidin-3-one]	cell death was inhibited; also recorded: exhibited an effect of inhibiting cell death in a concentration-dependent manner	the number of soluble fractions of TDP-43 was larger than the number of insoluble fractions of TDP-43	less than half	bands for insoluble fractions were unclear	bands for insoluble fractions were unclear	about 17.4%	headaches	serious side effects such as epileptiform seizure and mental confusion	~5.6	about 10 hours	> 128
CCCN(CCC)CCc1cccc2c1CC(=O)N2 [ropinirole]				bands for insoluble fractions were unclear	bands for insoluble fractions were unclear	about 19.3%					
